One experiment deals with T1, IRAK1 (Homo sapiens, UniProt P51617).
T1 construct: His-TEV-IRAK1 (194-712); His (N); TEV cleavage site (N)
Kind of experiment: IRAK1 enzymatic assay (ADP-Glo luminescence). The format is biochemical. The conditions noted are these: human recombinant His-TEV-IRAK1 (194-712), ATP 1 μM; read-out: IRAK 1 IC50. As for the experimental part: IRAK1 is a human purified recombinant enzyme (His-TEV-IRAK1 (194-712))
In this assay, IRAK1 hydrolyses ATP and autophosphorylates. Measurement of IRAK-1 inhibition is performed in 384-well format based on luminescence assay (ADP-Glo™ Kinase Assay from Promega). Purified human recombinant IRAK1 ([…]) and serial diluted compounds in DMSO (range of concentration from 10 μM to 0.5 nM) or controls (1% DMSO) are incubated for 15 minutes at RT in assay buffer containing 50 mM Hepes pH 7.0, Fatty acid-free BSA 0.1%, Dithiothreitol (DTT) 2 mM, MgCl2 10 mM, EGTA 0.5 mM, Triton X-100 0.01%. The kinase reaction is then initiated by the addition of ATP at a concentration of 1 μM. After 2 hours of incubation at RT, the reaction is stopped and the unconsumed ATP depleted by the addition of ADP-Glo™ Reagent according to supplier instructions. After 40 minutes of incubation at RT, the Kinase Detection Reagent is then added to the assay plate according to supplier instructions. After 20 minutes of incubation at RT, the luminescence signal is measured with a luminometer (PerkinElmer Envision or equivalent reader).

A further experiment deals with T2, IRAK4 (Homo sapiens, UniProt Q9NWZ3).
T2 construct: His-TEV-IRAK4 (1-460); His (N); TEV cleavage site (N)
T2 sequence (Q9NWZ3 1-460): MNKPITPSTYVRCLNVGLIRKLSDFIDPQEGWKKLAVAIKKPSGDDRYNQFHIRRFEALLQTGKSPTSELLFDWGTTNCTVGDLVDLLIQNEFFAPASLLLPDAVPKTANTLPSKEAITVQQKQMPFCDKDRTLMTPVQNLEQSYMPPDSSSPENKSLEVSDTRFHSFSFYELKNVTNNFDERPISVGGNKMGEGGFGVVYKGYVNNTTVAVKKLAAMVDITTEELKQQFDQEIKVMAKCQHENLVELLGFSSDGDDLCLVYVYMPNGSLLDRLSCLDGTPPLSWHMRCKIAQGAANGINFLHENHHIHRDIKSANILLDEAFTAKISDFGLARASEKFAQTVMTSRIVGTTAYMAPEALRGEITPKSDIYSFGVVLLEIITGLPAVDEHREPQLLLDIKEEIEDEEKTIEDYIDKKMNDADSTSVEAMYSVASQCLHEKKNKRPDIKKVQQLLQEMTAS
Kind of experiment: IRAK4 enzymatic assay (ADP-Glo luminescence). The format is biochemical. The conditions noted are these: human recombinant His-TEV-IRAK4 (1-460), STK1-biotin peptide substrate. On the procedure: IRAK4 is a human purified recombinant enzyme (His-TEV-IRAK4 (1-460)).
In this assay, IRAK4 hydrolyses ATP, autophosphorylates and phosphorylates a Serine/Threonine generic peptidic substrate (STK: 61ST1BLC from CisBio International). Measurement of IRAK-4 inhibition is performed in 384-well format based on a luminescence assay (ADP-Glo™ Kinase Assay from Promega). Purified human recombinant IRAK4 ([…]) and serial diluted compounds in DMSO (range of concentration from 10 μM to 0.5 nM) or controls (1% DMSO) are incubated for 15 minutes at RT in assay buffer containing 50 mM Hepes pH 7.0, Fatty acid-free BSA 0.1%, Dithiothreitol (DTT) 2 mM, MgCl2 10 mM, EGTA 0.5 mM, Triton X-100 0.01%, MnCl2 5 mM. The kinase reaction is then initiated by the addition of ATP ([…]) and the peptidic substrate STK1-biotin peptide (300 nM). After 2 hours of incubation at RT, the reaction is stopped and the unconsumed ATP depleted by the addition of ADP-Glo™ Reagent according to supplier instructions. After 40 minutes of incubation at RT, the Kinase Detection Reagent is then added to the assay plate according to supplier instructions. After 20 minutes of incubation at RT, the luminescence signal is measured with a plate-reading luminometer (PerkinElmer Envision or equivalent reader).

Experiment [1] concerns TLR7 induced IL-6 secretion in human mononuclear cells (PBMC's). Kind of experiment: TLR7 induced IL-6 in human PBMC's. The conditions noted are these: TLR7 specific ligand 2 uM overnight, IL-6 AlphaLISA. The format is cell-based. On the procedure: TLR7 Induced IL-6 in Human PBMC's
Human PBMC assay was used as one of the functional assaya to monitor the activity of IRAK1 and IRAK4 small molecule inhibitors on TLR7 induced IL-6 secretion in human mononuclear cells (PBMC's). Human PBMCs were prepared from buffy coats (whole blood enriched with leukocytes and platelets) obtained from healthy volunteers used either fresh or frozen are plated in assay media (RPMI+2% P/S/L-glu+10% HI-FBS) and pre-treated with compounds in DMSO/media (range of concentrations from 25 uM to 0.4 nM) or controls (0.25% DMSO) for 30 minutes at 37° C. in assay media. Following pre-treatment with IRAK1 and IRAK4 inhibitors, PBMC's were stimulated with TLR7 specific ligand (2 uM) overnight (16-18 hrs) at 37° C. After incubation supernatant was transferred to 384 well PE AlphaPlate-384 (6005350) and IL-6 is quantified using Perkin Elmer IL-6 Alpha LISA kit (AL223C). Plates were read on an Envision® plate reader with Alpha Technology®.
For orientation: Bead proximity is the source of the signal in Alpha formats.

Each structure is given as a SMILES string.

T1 sequence (P51617 194-712): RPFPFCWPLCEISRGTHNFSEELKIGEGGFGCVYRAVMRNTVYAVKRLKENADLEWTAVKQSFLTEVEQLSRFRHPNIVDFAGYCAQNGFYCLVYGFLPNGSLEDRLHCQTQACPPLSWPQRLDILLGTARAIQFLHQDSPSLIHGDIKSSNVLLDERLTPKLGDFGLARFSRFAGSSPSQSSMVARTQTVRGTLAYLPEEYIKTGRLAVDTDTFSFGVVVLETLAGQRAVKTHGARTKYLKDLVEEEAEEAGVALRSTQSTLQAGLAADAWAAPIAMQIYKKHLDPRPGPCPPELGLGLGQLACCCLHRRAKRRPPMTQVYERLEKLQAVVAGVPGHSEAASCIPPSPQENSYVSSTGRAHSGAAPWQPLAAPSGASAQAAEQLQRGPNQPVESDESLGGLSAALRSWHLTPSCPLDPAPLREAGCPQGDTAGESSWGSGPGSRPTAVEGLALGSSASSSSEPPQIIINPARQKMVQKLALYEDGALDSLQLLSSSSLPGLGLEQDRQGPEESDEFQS

As to `CN1CC(c2ccc3c(c2)nc(NC(=O)c2cccc(C(F)F)c2)n3CCCO)C(C)(C)C1=O` (single isomer, unassigned) [Compound 27b], the IC50 (in general, the concentration at which inhibition is half-maximal) was 100 to 1000 nM on IRAK1, not above 100 nM at IRAK4 and 100 to 1000 nM in experiment [1].

In the case of `CN1CCC(C)(c2ccc3c(c2)nc(NC(=O)c2cccc(C(F)(F)F)c2)n3CCCO)C1=O` (single isomer, unassigned) [Compound 29a], the IC50 on IRAK1 was 1000 to 10000 nM; on IRAK4, not above 100 nM; in experiment [1], 1000 to 10000 nM.

As to `CN1CCC(C)(c2ccc3c(c2)nc(NC(=O)c2cccc(C(F)(F)F)c2)n3CCCO)C1=O` (single isomer, unassigned) [Compound 29b], the IC50 at IRAK1 is 100 to 1000 nM; at IRAK4, not above 100 nM; in experiment [1], 100 to 1000 nM.

In the case of `CN1CCC(C)(c2ccc3c(c2)nc(NC(=O)c2cccc(C(F)F)c2)n3CCCO)C1=O` (single isomer, unassigned) [Compound 30a], the IC50 on IRAK1 is 1000 to 10000 nM; on IRAK4 it was not above 100 nM; in experiment [1] (Homo sapiens, PBMC), 1000 to 10000 nM.

On to `CN1C(=O)CCC1(C)c1ccc2c(c1)nc(NC(=O)c1cccc(C(F)F)c1)n2CCCO` (single isomer, unassigned) [Compound 31a], for which the IC50 is 100 to 1000 nM at IRAK1; not above 100 nM at IRAK4; 1000 to 10000 nM in experiment [1] (Homo sapiens, PBMC).

Turning to `CN1C(=O)CCC1(C)c1ccc2c(c1)nc(NC(=O)c1cccc(C(F)(F)F)c1)n2CCCO` (single isomer, unassigned) [Compound 32a], the IC50 on IRAK1 was 100 to 1000 nM; on IRAK4 it was not above 100 nM; in experiment [1] (Homo sapiens, PBMC), 1000 to 10000 nM.

As to `CN1C(=O)CCC1(C)c1ccc2c(c1)nc(NC(=O)c1cccc(C(F)(F)F)c1)n2CCCO` (single isomer, unassigned) [Compound 32b], the figures for the IC50 (on IRAK1; on IRAK4; in experiment [1]) were 100 to 1000 nM, not above 100 nM and 1000 to 10000 nM, respectively.

For `CN1CCCC(c2ccc3c(c2)[nH]/c(=N\C(=O)c2cccc(C(F)(F)F)c2)n3CCCO)C1=O` (stereo not drawn) [Compound 1, (E)-N-(1-(3-hydroxypropyl)-5-(1-methyl-2-oxopiperidin-3-yl)-1H-benzo[d]imidazol-2(3H)-ylidene)-3-(trifluoromethyl)benzamide], the IC50 on IRAK1 was not above 100 nM; on IRAK4, not above 100 nM; in experiment [1] (Homo sapiens, PBMC), not above 100 nM.

Take `CN1CCC[C@@H](c2ccc3c(c2)[nH]/c(=N\C(=O)c2cccc(C(F)(F)F)c2)n3CCCO)C1=O` [Compound 1a, (S,E)-N-(1-(3-hydroxypropyl)-5-(1-methyl-2-oxopiperidin-3-yl)-1H-benzo[d]imidazol-2(3H)-ylidene)-3-(trifluoromethyl)benzamide]: the IC50 is not above 100 nM on IRAK1; not above 100 nM at IRAK4; not above 100 nM in experiment [1] (Homo sapiens, PBMC).

On to `CN1CCC[C@H](c2ccc3c(c2)[nH]/c(=N\C(=O)c2cccc(C(F)(F)F)c2)n3CCCO)C1=O` [Compound 1b, (R,E)-N-(1-(3-hydroxypropyl)-5-(1-methyl-2-oxopiperidin-3-yl)-1H-benzo[d]imidazol-2(3H)-ylidene)-3-(trifluoromethyl)benzamide], for which the half-maximal inhibitory concentration (IC50) on IRAK1 is 100 to 1000 nM; on IRAK4 it was not above 100 nM; in experiment [1] (Homo sapiens, PBMC), 1000 to 10000 nM.

Take `CN1CCCC(c2ccc3c(c2)[nH]/c(=N\C(=O)c2cccc(C(F)F)c2)n3C[C@@](C)(F)CO)C1=O` (stereo partly drawn) [Compound 2b, (E)-3-(difluoromethyl)-N-(1-((R)-2-fluoro-3-hydroxy-2-methylpropyl)-5-(1-methyl-2-oxopiperidin-3-yl)-1H-benzo[d]imidazol-2(3H)-ylidene)benzamide]: the IC50 at IRAK1 was 100 to 1000 nM; on IRAK4, not above 100 nM; in experiment [1] (Homo sapiens, PBMC) it was not above 100 nM.

For `CN1CCC[C@H](c2ccc3c(c2)[nH]/c(=N\C(=O)c2cccc(C(F)F)c2)n3C[C@@](C)(F)CO)C1=O` [Compound 3a, 3-(difluoromethyl)-N-[(2E)-1-[(2R)-2-fluoro-3-hydroxy-2-methylpropyl]-5-[(3R)-1-methyl-2-oxopiperidin-3-yl]-2,3-dihydro-1H-1,3-benzodiazol-2-ylidene]benzamide], the IC50 at IRAK1 was 1000 to 10000 nM; at IRAK4, not above 100 nM; in experiment [1] (Homo sapiens, PBMC), 100 to 1000 nM.

On to `CN1CCC[C@@H](c2ccc3c(c2)[nH]/c(=N\C(=O)c2cccc(C(F)F)c2)n3C[C@@](C)(F)CO)C1=O` [Compound 3d, 3-(difluoromethyl)-N-[(2E)-1-[(2R)-2-fluoro-3-hydroxy-2-methylpropyl]-5-[(3S)-1-methyl-2-oxopiperidin-3-yl]-2,3-dihydro-1H-1,3-benzodiazol-2-ylidene]benzamide], for which the IC50 is not above 100 nM at IRAK1; not above 100 nM at IRAK4; not above 100 nM in experiment [1] (Homo sapiens, PBMC).

In the case of `Cn1cncc(-c2ccc3c(c2)[nH]/c(=N\C(=O)c2cccc(C(F)(F)F)c2)n3CCCO)c1=O` [Compound 5, (E)-N-(1-(3-hydroxypropyl)-5-(1-methyl-6-oxo-1,6-dihydropyrimidin-5-yl)-1H-benzo[d]imidazol-2(3H)-ylidene)-3-(trifluoromethyl)benzamide], the half-maximal inhibitory concentration (IC50) on IRAK1 was 100 to 1000 nM; on IRAK4, not above 100 nM; in experiment [1] (Homo sapiens, PBMC) it was 100 to 1000 nM.

Turning to `O=C(/N=c1\[nH]c2cc(C3CCCN(CC4CC4)C3=O)ccc2n1CCCO)c1cccc(C(F)(F)F)c1` (stereo not drawn) [Compound 7, (E)-N-(5-(1-(cyclopropylmethyl)-2-oxopiperidin-3-yl)-1-(3-hydroxypropyl)-1H-benzo[d]imidazol-2(3H)-ylidene)-3-(trifluoromethyl)benzamide], the IC50 was 100 to 1000 nM at IRAK1; not above 100 nM at IRAK4; 100 to 1000 nM in experiment [1] (Homo sapiens, PBMC).

On to `CN1CC(c2ccc3c(c2)[nH]/c(=N\C(=O)c2cccc(C(F)(F)F)c2)n3CCCO)CC1=O` (stereo not drawn) [Compound 10, (E)-N-(1-(3-hydroxypropyl)-5-(1-methyl-5-oxopyrrolidin-3-yl)-1H-benzo[d]imidazol-2(3H)-ylidene)-3-(trifluoromethyl)benzamide], for which the IC50 on IRAK1 is 100 to 1000 nM; on IRAK4 it was not above 100 nM; in experiment [1] (Homo sapiens, PBMC), 100 to 1000 nM.

For the compound `CC(=O)N1CCC(c2ccc3c(c2)[nH]/c(=N\C(=O)c2cccc(C(F)(F)F)c2)n3CCCO)C1` (stereo not drawn) [Compound 12, (E)-N-(5-(1-acetylpyrrolidin-3-yl)-1-(3-hydroxypropyl)-1H-benzo[d]imidazol-2(3H)-ylidene)-3-(trifluoromethyl)benzamide], the IC50 on IRAK1 was 100 to 1000 nM; at IRAK4, not above 100 nM; in experiment [1] (Homo sapiens, PBMC), 100 to 1000 nM.

For the origin of these results see US9969710B2, “Heteroaryl compounds as IRAK inhibitors and uses thereof” (Merck Patent GmbH, priority 2015, dated 2018).
